Assay [1] deals with T1, KRAS G12V (Homo sapiens, UniProt P01116, G12V).
T1 construct: made in house; host or cells: E. coli, e.g. BL21 (DE3)
Nature of the assay: HTRF assay, KRAS G12V interaction with SOS1. The conditions noted are these: bins <500 nM / 500 nM to 1000 nM, read-out: Inhibition of KRAS G12V (IC50). It counts as biochemical. An excerpt: (§1) This assay can be also used to assess a selective inhibition or reduction of signaling output of a mutant Ras protein relative to a wildtype, or relative to a different mutant Ras protein. For example, the equilibrium interaction of wildtype KRAS or K-Ras mutant (e.g., wildtype or a mutant thereof) with SOS1 (e.g., hSOS1) can be assessed as a proxy or an indication for the ability of a subject compound to bind and inhibit Ras protein. The HTRF assay detects from (i) a fluorescence resonance energy transfer (FRET) donor (e.g., antiGST-Europium) that is bound to GST-tagged K-Ras mutant to (ii) a FRET acceptor (e.g., anti-6His-XL665) bound to a His-tagged hSOSL1.
(§2) The assay buffer can contain ~5 mM HEPES pH 7.4, ~150 mM NaCl, ~1 mM DTT, 0.05% BSA and 0.0025% (v/v) Igepal. A Ras working solution is prepared in an assay buffer containing typically a suitable amount of the protein construct (e.g., GST-tagged K-Ras mutant) and the FRET donor (e.g., antiGST-Eu(K) from Cisbio, France). A SOS1 working solution is prepared in an assay buffer containing suitable amount of the protein construct (e.g., His-hSOS1) and the FRET acceptor (e.g., anti-6His-XL665 from Cisbio, France). A suitable amount of the protein construct will depend on the range of activity or range of IC50 values being detected or under investigation. For detecting an IC50 within a range of 500 nM, the protein constructs of the same range of molarity can be utilized.
(§3) A fixed volume of DMSO with or without test compound is transferred into a 384-well plate. Ras working solution is added to all wells of the test plate. SOS1 working solution is added to all wells except for those that are subsequently filled with inhibitor control solution. Upon incubation for about 10 minutes or longer, the fluorescence is measured with a M1000Pro plate reader (Tecan) using HTRF detection (excitation 337 nm, emission 1: 620 nm, emission 2: 665 nm). Compounds are tested in duplicate at different concentrations (for example, 10 μM, 2.5 μM, 0.63 μM, 0.16 μM, 0.04 μM, 0.01 μM test compound). The ratiometric data (i.e., emission 2 divided by emission 1) is used to calculate IC50 values against Ras using GraphPad Prism (GraphPad software). Signaling output measured in terms of IC50 values can be obtained and a ratio of IC50 against one mutant relative to another mutant can be calculated. For instance, a selective reduction of K-Ras G12S signaling output can be evidenced by a ratio greater than one. In particular, a selective reduction of K-Ras G12S signaling relative to K-Ras WT signaling is evidenced if the ratio of IC50 (against K-Ras WT) to IC50 (against K-Ras G12S) is greater than 1.
Background: Time-resolved FRET reads energy transfer from a long-lived donor to a nearby acceptor.

Assay [2] addresses T2, KRAS G12D (Homo sapiens, UniProt P01116, G12D).
T2 construct: made in house; host or cells: E. coli, e.g. BL21 (DE3)
Nature of the assay: HTRF assay, KRAS G12D interaction with SOS1. Format: biochemical. As to conditions: bins <500 nM / 500 nM to 1000 nM, read-out: Inhibition of KRAS G12D (IC50).
Excerpt: as §1, §2, §3

The test system of assay [3] is MiaPaca2 cells. Nature of the assay: Ras cellular assay, growth of cells with K-Ras G12C mutation. Format: cell-based. As to conditions: Homo sapiens, MIA PaCa-2; cell proliferation assay; bins ≤500 nM / >500 nM; read-out: Inhibition of MiaPaca2 Cells (IC50). As to the method:
For example, this assay can be also used to assess selective growth inhibition of a mutant Ras protein relative to a wildtype or different mutant Ras protein.
MIA PaCa-2 (ATCC CRL-1420) and NCI-H1792 (ATCC CRL-5895) cell lines comprise a G12C mutation and can be used to assess Ras cellular signaling in vitro, e.g., in response to an inhibitor compound of the present disclosure. […] MIA PaCa-2 culture medium is prepared with DMEM/Ham's F12 (e.g., with stable glutamine, 10% FCS, and 2.5% horse serum. NCI-H1792 culture medium is prepared with RPMI 1640 (e.g., with stable glutamine) and 10% FCS.
On a first day (e.g., Day 1), Softagar (Select Agar, Invitrogen, 3% in ddH2O autoclaved) is boiled and tempered at 48° C. Appropriate culture medium (i.e., medium) is tempered to 37° C. Agar (3%) is diluted 1:5 in medium (=0.6%) and plated into 96 well plates (Corning, #3904), then incubated at room temperature for agar solidification. A 3% agar is diluted to 0.25% in medium (1:12 dilution) and tempered at 42° C. Cells are trypsinized, counted, and tempered at 37° C. The cells (e.g., MIA PaCa-2 at about 125-150 cells, NCI-H1792 at about 1000 cells) are resuspended in […] 0.25% Agar and plated, followed by incubation at room temperature for agar solidification. The wells are overlaid with […] of the medium. Sister wells in a separate plate are plated for time zero determination. All plates are incubated overnight at 37° C. and 5% CO2.
On a second day (e.g., Day 2), time zero values are measured. A […] volume of Cell Titer 96 Aqueous Solution (Promega) is added to each well and incubated in the dark at 37° C. and 5% CO2. Absorption can be measured at 490 nm and reference wavelength 660 nm. DMSO-prediluted test compounds are added to wells of interest, e.g., with HP Dispenser, to one or more desired concentrations (e.g., a final DMSO concentration of 0.3%).
On a tenth day (e.g., Day 10), absorption by wells treated with the test compounds and control wells are measured with, for example, Cell Titer 96 AQueous and analyzed in comparison to the time zero measurements. The IC50 values are determined using the four parameter fit. The resulting IC50 value is a measurement of the ability of the test compound to reduce cell growth of Ras-driven cells (e.g., tumor cell lines) in vitro and/or in vivo.

In assay [4] the target is T3, KRAS G12S (Homo sapiens, UniProt P01116, G12S).
T3 construct: made in house; host or cells: E. coli, e.g. BL21 (DE3)
Put plainly: HTRF assay, KRAS G12S interaction with SOS1. Format: biochemical. The conditions noted are these: bins <500 nM / 500 nM to 1000 nM, read-out: Inhibition of KRAS G12S (IC50).
Excerpt: as §1, §2, §3

Assay [5] addresses T4, KRAS WT (Homo sapiens, UniProt P01116).
T4 construct: made in house; host or cells: E. coli, e.g. BL21 (DE3)
Put plainly: HTRF assay, wildtype KRAS interaction with SOS1. Format: biochemical. As to conditions: bins <500 nM / 500 nM to 1000 nM, read-out: Inhibition of KRAS WT (IC50).
Excerpt: as §1, §2, §3

Some results are limits rather than exact numbers.

T3 sequence (P01116 1-188 isoform P01116-2 G12S): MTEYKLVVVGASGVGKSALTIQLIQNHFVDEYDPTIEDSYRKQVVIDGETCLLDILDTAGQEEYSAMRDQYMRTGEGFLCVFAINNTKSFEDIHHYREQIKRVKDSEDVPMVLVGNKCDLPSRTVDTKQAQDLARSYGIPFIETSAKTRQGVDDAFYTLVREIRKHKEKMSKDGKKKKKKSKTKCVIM
T2 sequence (P01116 1-188 isoform P01116-2 G12D): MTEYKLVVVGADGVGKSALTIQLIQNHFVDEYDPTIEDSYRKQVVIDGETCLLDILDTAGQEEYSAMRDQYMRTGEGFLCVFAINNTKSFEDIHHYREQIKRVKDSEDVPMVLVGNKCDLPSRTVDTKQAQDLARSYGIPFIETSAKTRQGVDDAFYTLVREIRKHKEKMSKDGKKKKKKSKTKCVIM
T4 sequence (P01116 1-188 isoform P01116-2): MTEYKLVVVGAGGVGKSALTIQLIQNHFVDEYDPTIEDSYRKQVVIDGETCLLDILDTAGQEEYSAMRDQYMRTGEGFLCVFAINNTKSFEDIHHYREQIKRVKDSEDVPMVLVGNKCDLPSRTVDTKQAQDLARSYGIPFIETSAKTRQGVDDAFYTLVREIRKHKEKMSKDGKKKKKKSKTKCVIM
T1 sequence (P01116 1-188 isoform P01116-2 G12V): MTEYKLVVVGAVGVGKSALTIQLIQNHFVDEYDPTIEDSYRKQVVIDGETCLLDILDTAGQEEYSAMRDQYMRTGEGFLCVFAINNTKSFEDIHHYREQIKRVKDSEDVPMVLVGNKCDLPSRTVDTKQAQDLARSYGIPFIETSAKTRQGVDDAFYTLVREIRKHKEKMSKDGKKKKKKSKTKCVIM

One may read the IC50 as the concentration needed to halve the response being measured. As to `CCN(c1nc(OC[C@@]23CCCN2C[C@H](F)C3)nc2c(F)c(-c3ccc(F)c4sc(N)c(C#N)c34)c(C(F)(F)F)cc12)[C@@H]1CCN(C(=O)n2cnc(F)n2)[C@@H]1C` (atropisomer, axis not shown; (aS)) [Compound 125, 2-amino-4-((S)-4-(ethyl((2R,3R)-1-(3-fluoro-1H-1,2,4-triazole-1-carbonyl)-2-methylpyrrolidin-3-yl)amino)-8-fluoro-2-(((2R,7aS)-2-fluorotetrahydro-1H-pyrrolizin-7a(5H)-yl)methoxy)-6-(trifluoromethyl)quinazolin-7-yl)-7-fluorobenzo[b]thiophene-3-carbonitrile], the IC50 was less than 500 nM in assay [1]; less than 500 nM in assay [2]; no more than 500 nM in assay [3]; less than 500 nM in assay [4]; less than 500 nM in assay [5].

In the case of `CCN(c1nc(OC[C@@]23CCCN2C[C@H](F)C3)nc2c(F)c(-c3ccc(F)c4sc(N)c(C#N)c34)c(C(F)(F)F)cc12)[C@@H]1CCN(C(=O)n2ccc(Cl)n2)[C@@H]1C` (atropisomer, axis not shown; (aS)) [Compound 193, (S)-2-amino-4-(4-(((2R,3R)-1-(3-chloro-1H-pyrazole-1-carbonyl)-2-methylpyrrolidin-3-yl)(ethyl)amino)-8-fluoro-2-(((2R,7aS)-2-fluorotetrahydro-1H-pyrrolizin-7a(5H)-yl)methoxy)-6-(trifluoromethyl)quinazolin-7-yl)-7-fluorobenzo[b]thiophene-3-carbonitrile], the half-maximal inhibitory concentration (IC50) was less than 500 nM in assay [1]; less than 500 nM in assay [2]; no more than 500 nM in assay [3]; less than 500 nM in assay [4]; less than 500 nM in assay [5].

`CN(c1nc(OC[C@@]23CCCN2C[C@H](F)C3)nc2c(F)c(-c3ccc(F)c4sc(N)c(C#N)c34)c(Cl)cc12)C1CN(C(=O)n2ccnc2)CC1F` (mixture of isomers) [Compound 214, 2-amino-4-(6-chloro-8-fluoro-4-((4-fluoro-1-(1H-imidazole-1-carbonyl)pyrrolidin-3-yl)(methyl)amino)-2-(((2R,7aS)-2-fluorotetrahydro-1H-pyrrolizin-7a(5H)-yl)methoxy)quinazolin-7-yl)-7-fluorobenzo[b]thiophene-3-carbonitrile]: the IC50 in assay [1] is less than 500 nM; in assay [2] it was less than 500 nM; in assay [3] it was no more than 500 nM; in assay [4] it was less than 500 nM; in assay [5], less than 500 nM.

For the compound `C[C@@H]1[C@H](N(C)c2nc(OC[C@@]34CCCN3C[C@H](F)C4)nc3c(F)c(-c4ccc(F)c5sc(N)c(C#N)c45)c(Cl)cc23)CCN1C(=O)n1ccc(F)n1` [Compound 101, 2-amino-4-(6-chloro-8-fluoro-4-(((2R,3R)-1-(3-fluoro-1H-pyrazole-1-carbonyl)-2-methylpyrrolidin-3-yl)(methyl)amino)-2-(((2R,7aS)-2-fluorotetrahydro-1H-pyrrolizin-7a(5H)-yl)methoxy)quinazolin-7-yl)-7-fluorobenzo[b]thiophene-3-carbonitrile], the IC50 in assay [1] is less than 500 nM; in assay [2] it was less than 500 nM; in assay [3], no more than 500 nM; in assay [4], less than 500 nM; in assay [5] it was less than 500 nM.

As to `CCN(c1nc(OC[C@@]23CCCN2C[C@H](F)C3)nc2c(F)c(-c3ccc(F)c4sc(N)c(C#N)c34)c(Cl)cc12)[C@@H]1CCN(C(=O)n2cc(C#N)nc2C)[C@@H]1C` [Compound 102, 1-((2R,3R)-3-((7-(2-amino-3-cyano-7-fluorobenzo[b]thiophen-4-yl)-6-chloro-8-fluoro-2-(((2R,7aS)-2-fluorotetrahydro-1H-pyrrolizin-7a(5H)-yl)methoxy)quinazolin-4-yl)(ethyl)amino)-2-methylpyrrolidine-1-carbonyl)-2-methyl-1H-imidazole-4-carbonitrile], the IC50 in assay [1] is less than 500 nM; in assay [2] it was less than 500 nM; in assay [3], no more than 500 nM; in assay [4], less than 500 nM; in assay [5], less than 500 nM.

For `CCN(c1nc(OC[C@@]23CCCN2C[C@H](F)C3)nc2c(F)c(-c3ccc(F)c4sc(N)c(C#N)c34)c(Cl)cc12)[C@@H]1CCN(C(=O)n2cc(C)nc2C#N)[C@@H]1C` [Compound 104, 1-((2R,3R)-3-((7-(2-amino-3-cyano-7-fluorobenzo[b]thiophen-4-yl)-6-chloro-8-fluoro-2-(((2R,7aS)-2-fluorotetrahydro-1H-pyrrolizin-7a(5H)-yl)methoxy)quinazolin-4-yl)(ethyl)amino)-2-methylpyrrolidine-1-carbonyl)-4-methyl-1H-imidazole-2-carbonitrile], the IC50 in assay [1] was less than 500 nM; in assay [2], less than 500 nM; in assay [3], no more than 500 nM; in assay [4], less than 500 nM; in assay [5], less than 500 nM.

For the compound `CCN(c1nc(OC[C@@]23CCCN2C[C@H](F)C3)nc2c(F)c(-c3ccc(F)c4sc(N)c(C#N)c34)c(Cl)cc12)[C@@H]1CCN(C(=O)n2ccnc2)[C@@H]1C` [Compound 106, 4-(4-(((2R,3R)-1-(1H-imidazole-1-carbonyl)-2-methylpyrrolidin-3-yl)(ethyl)amino)-6-chloro-8-fluoro-2-(((2R,7aS)-2-fluorotetrahydro-1H-pyrrolizin-7a(5H)-yl)methoxy)quinazolin-7-yl)-2-amino-7-fluorobenzo[b]thiophene-3-carbonitrile], the IC50 in assay [1] was less than 500 nM; in assay [2], less than 500 nM; in assay [3], no more than 500 nM; in assay [4] it was less than 500 nM; in assay [5], less than 500 nM.

(Values after patent publication US20260217735A1, “HETEROCYCLES AND USES THEREOF” (Kumquat Biosciences Inc., priority 2023, published 2026).)
